In patent US20200247897A1, “THERAPEUTIC ANTIBODIES BASED ON MUTATED IGG HEXAMERS” (GENMAB B.V., priority 2017, published 2020):
Like-named read-outs stand apart in the source and are kept apart here.

Key:
SW480 = test: Drug combination screen (ATPlite, Synergy Score), SW480; type: cell-based, human
SNU-C2B = test: Drug combination screen (ATPlite, Synergy Score), SNU-C2B
LS-411N = test: Drug combination screen (ATPlite, Synergy Score), LS-411N; type: cell-based, human
HCT 116 = test: Drug combination screen (ATPlite, Synergy Score), HCT 116
DLD-1 = test: Drug combination screen (ATPlite, Synergy Score), DLD-1
[1] = compound in combination with IgG1-hDR5-01-G56T-E430G + IgG1-hDR5-05-E430G, SW480, 72 hour ATPlite, 6x6 matrix
[2] = compound in combination with IgG1-hDR5-01-G56T-E430G + IgG1-hDR5-05-E430G, SNU-C2B, 72 hour ATPlite, 6x6 matrix
[3] = compound in combination with IgG1-hDR5-01-G56T-E430G + IgG1-hDR5-05-E430G, LS-411N, 72 hour ATPlite, 6x6 matrix
[4] = compound in combination with IgG1-hDR5-01-G56T-E430G + IgG1-hDR5-05-E430G, HCT 116, 120 hour ATPlite, 6x6 matrix
[5] = compound in combination with IgG1-hDR5-01-G56T-E430G + IgG1-hDR5-05-E430G, DLD-1, 120 hour ATPlite, 6x6 matrix

With `Nc1cccc2c1CN(C1CCC(=O)NC1=O)C2=O` (stereo not drawn) [Lenalidomide] the “Synergy Score SW480” value (SW480; [1]) was 0, the “Synergy Score SNU-C2B” value (SNU-C2B; [2]) was 0.2 and the “Synergy Score LS-411N” value (LS-411N; [3]) was 0.1. The “Synergy Score HCT-116” value (HCT 116; [4]) was 0 and the “Synergy Score DLD-1” value (DLD-1; [5]) was 0.

In the case of `COCCNCc1ccc(-c2cc3nccc(Oc4ccc(NC(=S)NC(=O)Cc5ccc(F)cc5)cc4F)c3s2)nc1` [MGCD-265], the “Synergy Score SW480” value (SW480; [1]) is reported as 0.5, the “Synergy Score SNU-C2B” value (SNU-C2B; [2]) is reported as 3.1 and the “Synergy Score LS-411N” value (LS-411N; [3]) is reported as 0.7. The “Synergy Score HCT-116” value (HCT 116; [4]) was 0.1 and the “Synergy Score DLD-1” value (DLD-1; [5]) was 0.2.

`Cc1ccc(NC(=O)c2ccc(CN3CCN(C)CC3)cc2)cc1Nc1nc(-c2cccnc2)cs1` [Masitinib] was tested, and the “Synergy Score SW480” value (SW480; [1]) was 1.9, the “Synergy Score SNU-C2B” value (SNU-C2B; [2]) was 1.7 and the “Synergy Score LS-411N” value (LS-411N; [3]) was 1.4. The “Synergy Score HCT-116” value (HCT 116; [4]) was 0.3 and the “Synergy Score DLD-1” value (DLD-1; [5]) was 0.6.

In the case of `C[C@H]1C[C@@H]2[C@H]([C@@H](O)C[C@@]3(C)[C@H]2CC[C@]3(O)C(=O)CO)[C@@]2(C)C=CC(=O)C=C12` [Methylprednisolone], the “Synergy Score SW480” value (SW480; [1]) is reported as 0, the “Synergy Score SNU-C2B” value (SNU-C2B; [2]) is reported as 0.6 and the “Synergy Score LS-411N” value (LS-411N; [3]) is reported as 0. The “Synergy Score HCT-116” value (HCT 116; [4]) was 0 and the “Synergy Score DLD-1” value (DLD-1; [5]) was 0.

`C[C@]1(O)C[C@@H](c2nc(-c3ccc4ccc(-c5ccccc5)nc4c3)c3c(N)nccn32)C1` [OSI-906] was tested, and the “Synergy Score SW480” value (SW480; [1]) was 3.5, the “Synergy Score SNU-C2B” value (SNU-C2B; [2]) was 1 and the “Synergy Score LS-411N” value (LS-411N; [3]) was 1.7. For the same compound, the “Synergy Score HCT-116” value (HCT 116; [4]) was 0.1 and the “Synergy Score DLD-1” value (DLD-1; [5]) was 0.5.

With `COC1=CC(c2cc3ccccc3[nH]2)=N/C1=C\c1[nH]c(C)cc1C` [Obatoclax] the “Synergy Score SW480” value (SW480; [1]) was 11.8, the “Synergy Score SNU-C2B” value (SNU-C2B; [2]) was 4.7 and the “Synergy Score LS-411N” value (LS-411N; [3]) was 22.8. For the same compound, the “Synergy Score HCT-116” value (HCT 116; [4]) was 1.6 and the “Synergy Score DLD-1” value (DLD-1; [5]) was 6.1.

For `O=C(c1cc(Cc2n[nH]c(=O)c3ccccc23)ccc1F)N1CCN(C(=O)C2CC2)CC1` [Olaparib], the “Synergy Score SW480” value (SW480; [1]) was 1, the “Synergy Score SNU-C2B” value (SNU-C2B; [2]) was 2.5 and the “Synergy Score LS-411N” value (LS-411N; [3]) was 2.7. The “Synergy Score HCT-116” value (HCT 116; [4]) was 1.8 and the “Synergy Score DLD-1” value (DLD-1; [5]) was 0.7.

For `C=CCc1cccc(/C=N/NC(=O)CN2CCN(Cc3ccccc3)CC2)c1O` [PAC 1], the “Synergy Score SW480” value (SW480; [1]) was 3.9, the “Synergy Score SNU-C2B” value (SNU-C2B; [2]) was 6 and the “Synergy Score LS-411N” value (LS-411N; [3]) was 2.9. For the same compound, the “Synergy Score HCT-116” value (HCT 116; [4]) was 4.2 and the “Synergy Score DLD-1” value (DLD-1; [5]) was 10.6.

`CC(=O)Nc1nc(C)c(-c2ccc(Cl)c(S(=O)(=O)NCCO)c2)s1` [PIK-93] was tested, and the “Synergy Score SW480” value (SW480) was 4.1, the “Synergy Score SNU-C2B” value (SNU-C2B) was 5.1 and the “Synergy Score LS-411N” value (LS-411N) was 5.2. For the same compound, the “Synergy Score HCT-116” value (HCT 116) was 1.2 and the “Synergy Score DLD-1” value (DLD-1) was 1.

In the case of `CCCS(=O)(=O)Nc1ccc(F)c(C(=O)c2c[nH]c3ncc(-c4ccc(Cl)cc4)cc23)c1F` [PLX-4032], the “Synergy Score SW480” value (SW480; [1]) is reported as 1, the “Synergy Score SNU-C2B” value (SNU-C2B; [2]) is reported as 0.5 and the “Synergy Score LS-411N” value (LS-411N; [3]) is reported as 0.6. The “Synergy Score HCT-116” value (HCT 116; [4]) was 0.1 and the “Synergy Score DLD-1” value (DLD-1; [5]) was 0.6.

With `Nc1cccc2c1C(=O)N(C1CCC(=O)NC1=O)C2=O` (stereo not drawn) [Pomalidomide] the “Synergy Score SW480” value (SW480; [1]) was 0, the “Synergy Score SNU-C2B” value (SNU-C2B; [2]) was 0.5 and the “Synergy Score LS-411N” value (LS-411N; [3]) was 0. For the same compound, the “Synergy Score HCT-116” value (HCT 116; [4]) was 0 and the “Synergy Score DLD-1” value (DLD-1; [5]) was 0.1.

With `C[C@]12C=CC(=O)C=C1CC[C@@H]1[C@@H]2C(=O)C[C@@]2(C)[C@H]1CC[C@]2(O)C(=O)CO` [Prednisone] the “Synergy Score SW480” value (SW480; [1]) was 0, the “Synergy Score SNU-C2B” value (SNU-C2B; [2]) was 0.2 and the “Synergy Score LS-411N” value (LS-411N; [3]) was 0.1. The “Synergy Score HCT-116” value (HCT 116; [4]) was 0 and the “Synergy Score DLD-1” value (DLD-1; [5]) was 0.1.

`Cn1c(Nc2ccc(C(F)(F)F)cc2)nc2cc(Oc3ccnc(-c4ncc(C(F)(F)F)[nH]4)c3)ccc21` [RAF265] was tested, and the “Synergy Score SW480” value (SW480; [1]) was 4.5, the “Synergy Score SNU-C2B” value (SNU-C2B; [2]) was 3.7 and the “Synergy Score LS-411N” value (LS-411N; [3]) was 10.5. For the same compound, the “Synergy Score HCT-116” value (HCT 116; [4]) was 2.5 and the “Synergy Score DLD-1” value (DLD-1; [5]) was 5.6.

With `O=C1NC(=O)C(c2ccccc2[N+](=O)[O-])=C1Nc1ccc(O)c(Cl)c1` [SB 415286] the “Synergy Score SW480” value (SW480; [1]) was 3.8, the “Synergy Score SNU-C2B” value (SNU-C2B; [2]) was 0.7 and the “Synergy Score LS-411N” value (LS-411N; [3]) was 2.1. For the same compound, the “Synergy Score HCT-116” value (HCT 116; [4]) was 0.8 and the “Synergy Score DLD-1” value (DLD-1; [5]) was 0.4.

With `Cn1cc(C2=C(c3ccc(Cl)cc3Cl)C(=O)NC2=O)c2ccccc21` [SB-216763] the “Synergy Score SW480” value (SW480; [1]) was 1.4, the “Synergy Score SNU-C2B” value (SNU-C2B; [2]) was 0.3 and the “Synergy Score LS-411N” value (LS-411N; [3]) was 1.1. For the same compound, the “Synergy Score HCT-116” value (HCT 116; [4]) was 0.1 and the “Synergy Score DLD-1” value (DLD-1; [5]) was 0.5.
